Reference: patent publication US7618960B2, “Morpholine type cinnamide compound” (Eisai R&D Management Co., Ltd., priority 2005, dated 2009)

tested on: Aβ42 production; assay: Quantification of Aβ peptide in culture of neurons from rat fetus brain (Aβ ELISA); type: cell-based; conditions: Neuron, 72 h; rat primary neuronal culture (cerebral cortex, embryonic day 18 Wistar rats); medium collected three days after addition of compound; Aβx-42 ELISA; read-out: Activity for reducing Aβ42 production IC50
Protocol: Quantification of Aβ Peptide in Culture of Neurons from Rat Fetus Brain
(1) Rat Primary Neuronal Culture
Primary neuronal cultures were prepared from the cerebral cortex of embryonic day 18 Wistar rats (Charles River Japan, Yokohama, Japan). Specifically, the embryos were aseptically removed from pregnant rats under ether anesthesia. The brain was isolated from the embryo and immersed in an ice-cold L-15 medium (Invitrogen Corp. Cat #11415-064, Carlsbad, Calif., USA, or SIGMA L1518, for example). The cerebral cortex was collected from the isolated brain under a stereoscopic microscope. The cerebral cortex fragments collected were enzymatically treated in an enzyme solution containing 0.25% trypsin (Invitrogen Corp. Cat #15050-065, Carlsbad, Calif., USA) and 0.01% DNase (Sigma D5025, St. Louis, Mo., USA) at 37° C. for 30 minutes to disperse the cells. Here, the enzymatic reaction was stopped by adding inactivated horse serum to the solution. The enzymatically treated solution was centrifuged at 1,500 rpm for five minutes to remove the supernatant. 5 to 10 ml of a medium was added to the resulting cell mass. Neurobasal medium (Invitrogen Corp. Cat #21103-049, Carlsbad, Calif., USA) supplemented with 2% B27 supplement (Invitrogen Corp. Cat #17504-044, Carlsbad, Calif., USA), 25 μM 2-mercaptoethanol (2-ME, WAKO Cat #139-06861, Osaka, Japan), 0.5 mM L-glutamine (Invitrogen Corp. Cat #25030-081, Carlsbad, Calif., USA), and Antibiotics-Antimycotics (Invitrogen Corp. Cat #15240-062, Carlsbad, Calif., USA) was used as the medium (Neurobasal/B27/2-ME). However, the above Neurobasal medium not supplemented with 2-ME (Neurobasal/B27) was used for the assay. The cells were redispersed by mild pipetting of the cell mass to which the medium was added. The cell dispersion was filtered through a 40-μm nylon mesh (Cell Strainer, Cat #35-2340, Becton Dickinson Labware, Franklin Lakes, N.J., USA) to remove the remaining cell mass, and thus a neuronal cell suspension was obtained. The neuronal cell suspension was diluted with the medium and then plated in a volume of 100 μl/well at an initial cell density of 5×10^5 cells/cm^2 in a 96-well polystyrene culture plate pre-coated with poly-L or D-lysine (Falcon Cat #35-3075, Becton Dickinson Labware, Franklin Lakes, N.J., USA coated with poly-L-lysine using the method shown below, or BIOCOAT™ cell environments Poly-D-lysine cell ware 96-well plate, Cat #35-6461, Becton Dickinson Labware, Franklin Lakes, N.J., USA). Poly-L-lysine coating was carried out as follows. 100 μg/ml of a poly-L-lysine (SIGMA P2636, St. Louis, Mo., USA) solution was aseptically prepared with a 0.15 M borate buffer (pH 8.5). 100 μl/well of the solution was added to the 96-well polystyrene culture plate and incubated at room temperature for one or more hours or at 4° C. overnight or longer. The coated 96-well polystyrene culture plate was washed with sterile water four or more times, and then dried or rinsed with, for example, sterile PBS or medium, and used for cell plating. The plated cells were cultured in the culture plate at 37° C. in 5% […]-95% air for one day. Then, the total amount of the medium was replaced with a fresh Neurobasal™/B27/2-ME medium, and then the cells were cultured for further three days.
The drug was added to the culture plate on Day 4 of culture as follows. The total amount of the medium was removed from the wells, and 180 μl/well of Neurobasal medium not containing 2-ME and containing 2% B-27 (Neurobasal/B27) was added thereto. A solution of the test compound in dimethyl sulfoxide (hereinafter abbreviated as DMSO) was diluted with Neurobasal/B27 so that the initial concentration was at 10-fold of the final concentration. 20 μl/well of the dilution was added to and sufficiently mixed with the medium. The final DMSO concentration was 1% or less. Only DMSO was added to the control group.
The cells were cultured for three days after addition of the compound, and the total amount of the medium was collected. […]

| SMILES | IC50 |
| --- | --- |
| COc1cc(/C=C2\OCCN(Cc3ccc(F)c(F)c3F)C2=O)ccc1-n1cnc(C)c1 [Example 2, (Z)-2-[1-[3-methoxy-4-(4-methyl-1H-imidazol-1-yl)phenyl]methylidene]-4-(2,3,4-trifluorobenzyl)morpholin-3-one] | 187 nM |
| COc1cc(/C=C2\OCCN([C@@H](C)c3cc(F)c(F)c(F)c3)C2=O)ccc1-n1cnc(C)c1 [Example 10, (Z)-2-[1-[3-methoxy-4-(4-methyl-1H-imidazol-1-yl)phenyl]methylidene]-4-[(S)-1-(3,4,5-trifluorophenyl)ethyl]morpholin-3-one] | 84 nM |
| COc1cc(/C=C2\O[C@H](C)CN(Cc3ccc(F)c(F)c3F)C2=O)ccc1-n1cnc(C)c1 [Example 6, (Z)-(R)-2-[1-[3-methoxy-4-(4-methyl-1H-imidazol-1-yl)phenyl]methylidene]-6-methyl-4-(2,3,4-trifluorobenzyl)morpholin-3-one] | 156 nM |
| COc1cc(/C=C2\O[C@@H](C)CN([C@H]3CCOc4ccccc43)C2=O)ccc1-n1cnc(C)c1 [Example 13, (Z)-(S)-4-[(S)-chroman-4-yl]-2-[1-[3-methoxy-4-(4-methyl-1H-imidazol-1-yl)phenyl]methylidene]-6-methylmorpholin-3-one] | 129 nM |
| COc1cc(/C=C2\O[C@@H](C)CN([C@](C)(CO)c3cc(F)c(F)c(F)c3)C2=O)ccc1-n1cnc(C)c1 [Example 36, (Z)-(S)-4-[(S)-2-hydroxy-1-methyl-1-(3,4,5-trifluorophenyl)ethyl]-2-[1-[3-methoxy-4-(4-methyl-1H-imidazol-1-yl)phenyl]methylidene]-6-methylmorpholin-3-one] | 109 nM |
| Cc1cn(-c2ccc(/C=C3\O[C@@H](C)CN([C@H](c4ccc(F)c(F)c4)[C@@H](C)O)C3=O)cc2F)cn1 [Example 75, (Z)-(S)-4-[(1R,2R)-1-(3,4-difluorophenyl)-2-hydroxypropyl]-2-[1-[3-fluoro-4-(4-methyl-1H-imidazol-1-yl)phenyl]methylidene]-6-methylmorpholin-3-one] | 146 nM |
| COc1cc(/C=C2\O[C@@H](C)CN([C@H](c3cc(F)c(F)c(F)c3)[C@@H](C)O)C2=O)ccc1-n1cnc(C)c1 [Example 26, (Z)-(S)-4-[(1R,2R)-2-hydroxy-1-(3,4,5-trifluorophenyl)propyl]-2-[1-[3-methoxy-4-(4-methyl-1H-imidazol-1-yl)phenyl]methylidene]-6-methylmorpholin-3-one] | 6 nM |
| COc1cc(/C=C2\O[C@@H](C)CN([C@@H](C)c3ccc(Cl)cn3)C2=O)ccc1-n1cnc(C)c1 [Example 20, (Z)-(S)-4-[(S)-1-(5-chloropyridin-2-yl)ethyl]-2-[1-[3-methoxy-4-(4-methyl-1H-imidazol-1-yl)phenyl]methylidene]-6-methylmorpholin-3-one] | 82 nM |
| COc1cc(/C=C2\OC(C)(C)CN([C@@H](C)c3ccnc(Cl)c3)C2=O)ccc1-n1cnc(C)c1 [Example 54, (Z)-4-[(S)-1-(2-chloropyridin-4-yl)ethyl]-2-[1-[3-methoxy-4-(4-methyl-1H-imidazol-1-yl)phenyl]methylidene]-6,6-dimethylmorpholin-3-one] | 74 nM |
| COc1cc(/C=C2\O[C@@H](C)CN([C@H](C)c3ccc(F)nc3F)C2=O)ccc1-n1cnc(C)c1 [Example 23, (Z)-(S)-4-[(R)-1-(2,6-difluoropyridin-3-yl)ethyl]-2-[1-[3-methoxy-4-(4-methyl-1H-imidazol-1-yl)phenyl]methylidene]-6-methylmorpholin-3-one] | 130 nM |
| COc1cc(/C=C2\O[C@@H](C)CN([C@H](c3ccc(F)c(F)c3)[C@@H](C)O)C2=O)ccc1-n1cnc(C)c1 [Example 34, (Z)-(S)-4-[(1R,2R)-1-(3,4-difluorophenyl)-2-hydroxypropyl]-2-[1-[3-methoxy-4-(4-methyl-1H-imidazol-1-yl)phenyl]methylidene]-6-methylmorpholin-3-one] | 23 nM |
| COc1cc(/C=C2\O[C@H](C)CN([C@@H](C)c3ccc(F)cc3)C2=O)ccc1-n1cnc(C)c1 [Example 8, (Z)-(R)-4-[(S)-1-(4-fluorophenyl)ethyl]-2-[1-[3-methoxy-4-(4-methyl-1H-imidazol-1-yl)phenyl]methylidene]-6-methylmorpholin-3-one] | 113 nM |
